The values that follow come from article PMC2854646 (Oncogene, 2008).

In the assay the target is T1, E1 (ubiquitin-activating enzyme) (Homo sapiens, UniProt P22314).
T1 sequence (P22314 2-1058): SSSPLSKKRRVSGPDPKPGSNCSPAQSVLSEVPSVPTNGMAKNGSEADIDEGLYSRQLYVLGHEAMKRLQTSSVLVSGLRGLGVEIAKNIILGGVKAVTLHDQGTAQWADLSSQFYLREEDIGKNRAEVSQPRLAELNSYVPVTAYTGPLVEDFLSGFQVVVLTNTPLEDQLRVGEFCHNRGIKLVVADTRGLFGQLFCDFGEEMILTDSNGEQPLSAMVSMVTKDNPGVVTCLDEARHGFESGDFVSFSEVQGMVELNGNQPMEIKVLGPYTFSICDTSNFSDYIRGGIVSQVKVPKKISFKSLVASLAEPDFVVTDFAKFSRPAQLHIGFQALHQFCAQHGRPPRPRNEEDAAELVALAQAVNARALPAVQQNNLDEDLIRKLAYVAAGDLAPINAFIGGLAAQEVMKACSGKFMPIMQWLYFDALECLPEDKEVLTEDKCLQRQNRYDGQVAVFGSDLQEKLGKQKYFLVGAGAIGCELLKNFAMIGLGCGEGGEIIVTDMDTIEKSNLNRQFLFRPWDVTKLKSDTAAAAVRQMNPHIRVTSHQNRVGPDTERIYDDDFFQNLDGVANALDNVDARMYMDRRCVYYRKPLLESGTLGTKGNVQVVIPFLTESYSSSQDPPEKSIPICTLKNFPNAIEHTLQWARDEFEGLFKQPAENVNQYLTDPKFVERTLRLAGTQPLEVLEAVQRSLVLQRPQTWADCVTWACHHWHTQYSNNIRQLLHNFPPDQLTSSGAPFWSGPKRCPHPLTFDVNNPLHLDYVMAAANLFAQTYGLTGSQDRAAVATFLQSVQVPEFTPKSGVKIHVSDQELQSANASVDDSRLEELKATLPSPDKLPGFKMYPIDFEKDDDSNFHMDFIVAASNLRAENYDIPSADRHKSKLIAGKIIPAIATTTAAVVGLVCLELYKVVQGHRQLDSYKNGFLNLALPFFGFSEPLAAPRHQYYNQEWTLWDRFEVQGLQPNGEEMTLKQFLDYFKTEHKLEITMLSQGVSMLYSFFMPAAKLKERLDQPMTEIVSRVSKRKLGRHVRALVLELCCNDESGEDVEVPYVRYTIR
In words: ubiquitin~E1 thioester immunoblot. It is filed as cell-based.

One may read the IC50 as the concentration needed to halve the response being measured. As to `CCOC(=O)N1CCN(/[N+]([O-])=N/Oc2ccc([N+](=O)[O-])cc2[N+](=O)[O-])CC1` [JS-K, O^2-(2,4-dinitrophenyl) 1-[(4-ethoxycarbonyl)piperazin-1-yl]diazen-1-ium-1,2-diolate], the IC50 is about 2000 nM.
